Test results published in patent US12492193B2, “Pyrazole derivatives for the treatment of cystic fibrosis” (Fondazione Istituto Italiano Di Tecnologia, priority 2017, dated 2025).

Molecular target: T1, mutant CFTR (Homo sapiens, UniProt P13569, DEL508-508)
T1 construct: expressed in transfected cells
Experiment: Fluorescence (HS-YFP) assay for CFTR activity, corrector assay
Assay type: cell-based
Details: CFBE41o- and FRT cells with stable expression of mutant CFTR, 24 h compound treatment
Summary of the method: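 Corrector activity: 24 h compound treatment of HS-YFP/mutant-CFTR CFBE41o- or FRT cells, followed by 30 min forskolin 20 μM + genistein 50 μM at 37° C. Iodide influx (100 mM final) was tracked as fluorescence quenching, with dF/dt extrapolated by exponential fitting; EC50 values derived.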

T1 sequence (P13569 with tags, fused parts or gaps DEL508-508): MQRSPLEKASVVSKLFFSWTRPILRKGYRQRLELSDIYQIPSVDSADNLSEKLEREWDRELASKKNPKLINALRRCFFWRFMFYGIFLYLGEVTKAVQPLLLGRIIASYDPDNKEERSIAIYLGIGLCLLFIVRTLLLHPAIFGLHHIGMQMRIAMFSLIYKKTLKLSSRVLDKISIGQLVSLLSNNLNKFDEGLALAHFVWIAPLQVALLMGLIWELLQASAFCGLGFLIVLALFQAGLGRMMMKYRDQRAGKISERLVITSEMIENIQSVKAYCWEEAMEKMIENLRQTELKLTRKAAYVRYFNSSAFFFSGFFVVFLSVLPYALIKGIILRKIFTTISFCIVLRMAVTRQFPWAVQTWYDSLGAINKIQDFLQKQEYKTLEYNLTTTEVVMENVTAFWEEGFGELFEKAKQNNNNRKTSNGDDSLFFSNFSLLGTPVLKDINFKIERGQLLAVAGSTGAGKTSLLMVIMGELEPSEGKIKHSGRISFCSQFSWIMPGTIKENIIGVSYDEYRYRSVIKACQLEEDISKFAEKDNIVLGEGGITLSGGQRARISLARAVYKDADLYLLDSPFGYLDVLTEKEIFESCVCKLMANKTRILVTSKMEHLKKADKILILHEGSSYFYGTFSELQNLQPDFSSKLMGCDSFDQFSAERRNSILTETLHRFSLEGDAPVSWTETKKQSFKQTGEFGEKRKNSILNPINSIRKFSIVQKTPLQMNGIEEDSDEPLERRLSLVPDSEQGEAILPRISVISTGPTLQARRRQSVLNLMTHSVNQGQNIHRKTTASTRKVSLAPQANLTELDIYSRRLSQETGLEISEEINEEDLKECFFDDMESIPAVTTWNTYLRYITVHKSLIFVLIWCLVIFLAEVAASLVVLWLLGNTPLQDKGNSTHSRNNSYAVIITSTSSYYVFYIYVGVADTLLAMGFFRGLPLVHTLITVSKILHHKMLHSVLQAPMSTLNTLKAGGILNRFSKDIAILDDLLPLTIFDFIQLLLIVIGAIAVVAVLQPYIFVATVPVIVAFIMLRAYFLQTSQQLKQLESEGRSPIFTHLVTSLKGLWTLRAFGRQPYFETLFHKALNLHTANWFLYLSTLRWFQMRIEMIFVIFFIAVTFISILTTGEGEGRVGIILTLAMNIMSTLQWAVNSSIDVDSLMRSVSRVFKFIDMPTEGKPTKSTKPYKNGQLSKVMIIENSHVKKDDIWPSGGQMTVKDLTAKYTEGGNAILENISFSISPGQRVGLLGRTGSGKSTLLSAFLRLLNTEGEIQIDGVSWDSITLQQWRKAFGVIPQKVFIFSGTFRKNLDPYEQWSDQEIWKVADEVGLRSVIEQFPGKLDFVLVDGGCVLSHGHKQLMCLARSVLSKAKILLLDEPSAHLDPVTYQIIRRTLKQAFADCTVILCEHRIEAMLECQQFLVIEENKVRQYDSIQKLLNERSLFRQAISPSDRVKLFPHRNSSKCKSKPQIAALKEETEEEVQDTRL

EC50 [µM]	SMILES
< 1	CN(C(=O)c1cccc(-n2nc(C(F)(F)F)c(Cl)c2OCC23CC(C(=O)O)(C2)C3)c1)c1ccc2c(c1)OC(F)(F)O2 [compound 258, 3-[[4-Chloro-2-[3-[(2,2-difluoro-1,3-benzodioxol-5-yl)-methyl-carbamoyl]phenyl]-5-(trifluoromethyl)pyrazol-3-yl]oxymethyl]bicyclo[1.1.1]pentane-1-carboxylic acid]
< 1	CN(C(=O)c1cccc(-n2nc(C(F)(F)F)cc2OCCc2ccccc2)c1)c1ccc2c(c1)OCO2 [compound 133, N-(1,3-Benzodioxol-5-yl)-N-methyl-3-[5-phenethyloxy-3-(trifluoromethyl)pyrazol-1-yl]benzamide]
> 2	Cc1c(Cl)c(C(F)(F)F)nn1-c1cccc(C(=O)Nc2ccc3c(c2CO)OCO3)c1 [compound 206, 3-[4-chloro-5-methyl-3-(trifluoromethyl)pyrazol-1-yl]-N-[4-(hydroxymethyl)-1,3-benzodioxol-5-yl]benzamide]
> 2	Cc1c(Cl)c(C(F)(F)F)nn1-c1cccc(C(=O)Nc2ccc3c(c2C(=O)O)OCO3)c1 [compound 205, 5-[[3-[4-chloro-5-methyl-3-(trifluoromethyl)pyrazol-1-yl]benzoyl]amino]-1,3-benzodioxole-4-carboxylic acid]
1 to 2	Cc1c(Cl)c(C(F)(F)F)nn1-c1cccc(C(=O)N(C)c2cc3c(cc2C=O)OCO3)c1 [compound 161, 3-[4-chloro-5-methyl-3-(trifluoromethyl)pyrazol-1-yl]-N-(6-formyl-1,3-benzodioxol-5-yl)-N-methyl-benzamide]
< 1	CN(C(=O)c1cccc(-n2nc(C(F)(F)F)c(C#N)c2Oc2ccc(C(=O)OC(C)(C)C)cc2)c1)c1ccc2c(c1)OCO2 [compound 200, Tert-butyl 4-[2-[3-[1,3-benzodioxol-5-yl (methyl)carbamoyl]phenyl]-4-cyano-5-(trifluoromethyl)pyrazol-3-yl]oxybenzoate]
< 1	CO[C@H](c1ccccc1)c1c(Cl)c(C)nn1-c1cccc(C(=O)N(C)c2ccc3c(c2)OCO3)c1 (racemic) [compound 117, N-(1,3-Benzodioxol-5-yl)-3-[4-chloro-5-[(rac)-methoxy (phenyl)methyl]-3-methyl-pyrazol-1-yl]-N-methyl-benzamide]
< 1	CN(C(=O)c1cccc(-n2nc(C(F)(F)F)cc2-c2ccccc2C(F)(F)F)c1)c1ccc2c(c1)OCO2 [compound 176, N-(1,3-Benzodioxol-5-yl)-N-methyl-3-[3-(trifluoromethyl)-5-[2-(trifluoromethyl)phenyl]pyrazol-1-yl]benzamide]
1 to 2	Cc1nn(-c2cccc(C(=O)N(C)c3ccc4c(c3)OCO4)c2)c(COc2cccc(C(=O)O)c2)c1Cl [compound 143, 3-[[2-[3-[1,3-Benzodioxol-5-yl(methyl)carbamoyl]phenyl]-4-chloro-5-methyl-pyrazol-3-yl]methoxy]benzoic acid]
< 1	CN(C(=O)c1cccc(-n2nc(C(F)(F)F)cc2OCc2ccc(C(=O)O)cc2)c1)c1ccc2c(c1)OCC2 [compound 262, 4-[[2-[3-[2,3-Dihydrobenzofuran-6-yl(methyl)carbamoyl]phenyl]-5-(trifluoromethyl)pyrazol-3-yl]oxymethyl]benzoic acid]

Second part, the compound before the results:

SMILES	EC50 [µM]
CC(C)Cc1c(Cl)c(C(F)(F)F)nn1-c1cccc(C(=O)N(C)c2cc3c(cc2Cl)OCO3)c1 [compound 110, N-(6-Chloro-1,3-benzodioxol-5-yl)-3-[4-chloro-5-isobutyl-3-(trifluoromethyl)pyrazol-1-yl]-N-methyl-benzamide]	< 1
Cc1nn(-c2cccc(C(=O)N(C)c3ccc4c(c3)OC(C)(C)O4)c2)c(C)c1Cl [compound 034, 3-(4-Chloro-3,5-dimethyl-pyrazol-1-yl)-N-(2,2-dimethyl-1,3-benzodioxol-5-yl)-N-methyl-benzamide]	> 2
Cc1nn(-c2cccc(C(=O)N(C)c3ccc4c(c3)ncn4C)c2)c(C)c1Cl [compound 024, 3-(4-Chloro-3,5-dimethyl-pyrazol-1-yl)-N-methyl-N-(1-methylbenzimidazol-5-yl)benzamide]	> 2
Cc1nn(-c2cccc(C(=O)Nc3ccc4c(c3)OCO4)c2)c(C)c1Cl [Int-012, N-(1,3-Benzodioxol-5-yl)-3-(4-chloro-3,5-dimethyl-pyrazol-1-yl)benzamide]	> 2
CCc1cc(CC)n(-c2cccc(C(=O)N(C)c3ccc4c(c3)OCO4)c2)n1 [compound 093, N-(1,3-Benzodioxol-5-yl)-3-(3,5-diethylpyrazol-1-yl)-N-methyl-benzamide]	1 to 2
Cc1nn(-c2cccc(C(=O)N(C)c3ccc4c(c3)OC(F)(F)C(F)(F)O4)c2)c(C)c1Cl [compound 008, 3-(4-Chloro-3,5-dimethyl-pyrazol-1-yl)-N-methyl-N-(2,2,3,3-tetrafluoro-1,4-benzodioxin-6-yl)benzamide]	> 2
Cc1cc(C)n(-c2cccc(S(=O)(=O)N(C)c3ccc4c(c3)OCCO4)c2)n1 [compound 017, N-(2,3-dihydro-1,4-benzodioxin-6-yl)-3-(3,5-dimethylpyrazol-1-yl)-N-methyl-benzenesulfonamide]	> 2
Cc1nn(-c2cccc(C(=O)N(C)c3ccc4c(c3)OCO4)c2)c(C(N)=O)c1Cl [compound 084, 2-[3-[1,3-benzodioxol-5-yl(methyl)carbamoyl]phenyl]-4-chloro-5-methyl-pyrazole-3-carboxamide]	> 2
Cc1cn2cc(N(C)C(=O)c3cccc(-n4nc(C)c(Cl)c4C)c3)ccc2n1 [compound 077, 3-(4-Chloro-3,5-dimethyl-pyrazol-1-yl)-N-methyl-N-(2-methylimidazo[1,2-a]pyridin-6-yl)benzamide]	< 1
Cc1nn(-c2cccc(C(=O)N(C)c3ccc4c(c3)CCCC4)c2)c(C)c1Cl [compound 044]	> 2
COc1cccc(N(C)C(=O)c2cccc(-n3nc(C)c(Cl)c3C)c2)c1 [compound 068, 3-(4-Chloro-3,5-dimethyl-pyrazol-1-yl)-N-(3-methoxyphenyl)-N-methyl-benzamide]	< 1
Cc1cc(C(F)(F)F)nn1-c1cccc(C(=O)N(C)c2ccc3c(c2)OCO3)c1 [compound 091, N-(1,3-Benzodioxol-5-yl)-N-methyl-3-[5-methyl-3-(trifluoromethyl)pyrazol-1-yl]benzamide]	1 to 2
CCOC(=O)c1c(Cl)c(C(C)C)nn1-c1cccc(C(=O)N(C)c2ccc3c(c2)OCO3)c1 [compound 087, Ethyl 2-[3-[1,3-benzodioxol-5-yl(methyl)carbamoyl]phenyl]-4-chloro-5-isopropyl-pyrazole-3-carboxylate]	< 1
CCOC(=O)c1nn(-c2cccc(C(=O)N(C)c3ccc4c(c3)OCO4)c2)c(C)c1Cl [compound 067, Ethyl 1-[3-[1,3-benzodioxol-5-yl(methyl)carbamoyl]phenyl]-4-chloro-5-methyl-pyrazole-3-carboxylate]	> 2
Cc1nn(-c2cccc(C(=O)Nc3ccc4oc(C(F)(F)F)nc4c3)c2)c(C)c1Cl [compound 054, 3-(4-Chloro-3,5-dimethyl-pyrazol-1-yl)-N-[2-(trifluoromethyl)-1,3-benzoxazol-5-yl]benzamide]	1 to 2
